In US20220339257A1, “METHODS TO INCREASE THE SENSITIVITY AND REVERSING THE RESISTANCE TO DRUGS” (Biomarker Strategies, LLC, priority 2019, published 2022):

B1: interferon-alpha-1 (protein, UniProt P01562 24-189, looked up)
Interferon alpha-1/13: CDLPETHSLDNRRTLMLLAQMSRISPSSCLMDRHDFGFPQEEFDGNQFQKAPAISVLHELIQQIFNLFTTKDSSAAWDEDLLDKFCTELYQQLNDLEACVMQEERVGETPLMNADSILAVKKYFRRITLYLTEKKYSPCAWEVVRAEIMRSLSLSTNLQERLRRKE
notes: enhancer molecule, cytokine purchased from Sigma

Tests used:
Format in all cases: cell-based
[1] = system: A498; assay: WST-8 cell viability assay; details: in combination with cetuximab, 72 hours
Procedure: (§1) Day 1: cells were harvested cells from flask (4 mL accutase for T175 for 3-5 minutes), and spin down for 5 mins at 1200 rpm. The supernatant was poured off, and the pellet gently resuspended in 1 mL media. Countess counts were performed, and the cells were diluted in media (10% FBS). With multi-channel pipette, 2500 cells were seeded in 100 uL of media (10% FBS) in each well of 96 well plate. The cells were let to adhere and grow for 24 hours. Day 2: serial drug dilutions of MTAs+/−EMs at 5× of concentrations (as done above) were performed in media (10% FBS). 20 uL of media form each well of the 96 well plate (80 uL media left in wells) was removed, and 20 uL of appropriate 5× drug dilutions was added to each respective well (for a 1× conc). The cells were incubated with drug for 72 hours in 37C incubator. Day 5: 10 uL of WST-8 reagent was added to each well of the 96 well plate and mixed gently. the plates were incubated up to 4 hours at 37C in dark, and absorbance readings were taken at […] and 600 nm wavelengths at 1, 2, 3 and 4h, until control absorbance levels were 1.5-2.0).
(§2) WST-8 Assay: MTA and EM effects on cell viability were measured by Cell Counting Kit8 (WST-8) colorimetric assay using water-soluble tetrazolium salt WST-8 reagent (Vita Scientific Cat. #DBOC00128). For the assay, cells were seeded in 96-well plates at 2,500 cells per well, in 100 μL of 10% FBS-containing media. After 24 hours, a 1 nM to 10 μM range of MTA and/or 1 ng/mL to 1 mg/mL range of EM doses was added and incubated for 72 hours. After treatment, a 10% volume of WST-8 reagent was added to each well and cells were incubated at 37° C. for up to 4 hours. Solution absorbance was measured at wavelengths of 450 nm and 600 nm at 1-, 2-, 3-, and 4-hour's incubation. Percentage viability of drug-treated cells was calculated relative to untreated control cells. Results were confirmed by three independent experiments.
(§3) For studying the effects of various molecularly targeted agents (MTAs) and enhancer molecules (EMs) alone as well as in combination: HCC827, PC-9, A427, Calu-6, H2228, H358, H1299, H460, H292, H1838, H2170, and H226 (non-small cell lung cancer; NSCLC); and SK-MES-1 […], CAL27, OE21, KYSE-70, A-253, BICR-16, PE/CA-PJ15 and Ca9-22 (head and neck squamous cell carcinoma; HNSCC); SK-MEL-2, SK-MEL-28, RPMI-7951 and A7 (melanoma); HTB-38 and HCT116 (colorectal cancer; CRC); BxPC-3 and HPAF-II (pancreatic cancer); HEPG2 (hepatocellular carcinoma; HCC); A498 (renal cell carcinoma; RCC) cells were used. Other cell lines, including those from other cancer types, or cells collected from more complex sample types such as xenografts and clinical samples can be used. Ultimately, these combinations can be utilized in various clinical and pre-clinical samples and studies. Using the WST-8 cell viability assay, a MTA+EM-induced anti-cancer/anti-growth activity in multiple cell lines was discovered (FIGS. 8-15). Other viability assays, for example, MTT, HoPI staining, dye exclusion (e.g. trypan blue), can be used readily. […] The cut-off value for classifying a “strong anti-cancer/anti-growth enhancement” was a response resulting in >70% reduction in cell survival compared to untreated control cells (100%), while showing greater reduction compared to both MTA and EM alone.

[2] = system: BICR-16; assay: WST-8 cell viability assay; details: in combination with IFN-γ, 72 hours
Procedure: as §1, §2, §3

[3] = system: Calu-6; assay: WST-8 cell viability assay; details: in combination with IFN-γ, 72 hours
Procedure: as §1, §2, §3

[4] = system: HTB-38; assay: WST-8 cell viability assay; details: in combination with IFN-γ, 72 hours
Procedure: as §1, §2, §3

[5] = system: OE21; assay: WST-8 cell viability assay; details: in combination with GSK-458, 72 hours
Procedure: as §1, §2, §3

[6] = system: PC-9; assay: WST-8 cell viability assay; details: in combination with trametinib; PC-9 (EGFR E746_A750del); 72 hours
Procedure: as §1, §2, §3

[7] = system: RPMI-7951; assay: WST-8 cell viability assay
Procedure: as §1, §2, §3

[8] = system: erlotinib-resistant PC-9; assay: WST-8 cell viability assay
Procedure: as §1, §2, §3

[9] = system: EGFR WT sample (H1581); assay: Immunocytochemistry biomarker staining; details: erlotinib+EM2 combination; WT EGFR smoker samples; 72 hours
Procedure: (§4) Cells at the seeding density of 10,000 cells per well were plated in 8 chamber slides in complete RPMI culture medium for overnight. After 24h cells were treated with RPMI media without the serum along with selected dose of erlotinib+EM2 and kept for additional 72 hours in incubation condition set at 37° C. in a humidified atmosphere of 95% air and 5% CO2. The chamber slides were rinsed with PBS before performing ICC staining. An Ambay kit (Catalog #10011A) purchased from Ambay Immune Sensors and Controls, LLC (AISC) (MD, USA) was used to perform ICC staining as per the kit instructions and using poly-HRP from Biogenix (CA, USA) was used to enable signal amplification and detection of specific bound antibody targets. A respective isotype antibody control was be kept for each biomarker. Counterstaining was performed before mounting and analysis.

[10] = system: clinical sample (WT EGFR tumor, patient who smoked); assay: Immunocytochemistry biomarker staining of a clinical sample; details: erlotinib+EM2 combination
Procedure: as §4

[11] = system: panel of cell lines that included NSCLC, HNSCC, melanoma, and CRC; assay: WST8 in vitro sensitivity to MTAs with and without EM
Procedure: as §1
We used a panel of cell lines that included NSCLC, HNSCC, melanoma, and CRC. These cell lines are a good model system harboring similar (epi)genetic changes found in patients' tumors. We used the WST8 assay to determine the in vitro sensitivity to various MTAs with and without EM1.

[12] = system: Ca9-22; assay: WST-8 cell viability assay
Procedure: as §1, §2, §3

[13] = in combination with GSK-458, 72 hours
[14] = in combination with trametinib, 72 hours

Molecule	anti-cancer/growth enhancement (WST-8 cell viability) [1]	anti-cancer/growth enhancement (WST-8 cell viability) [2]	anti-cancer/growth enhancement (WST-8 cell viability) [3]	anti-cancer/growth enhancement (WST-8 cell viability) [4]	anti-cancer/growth enhancement (WST-8 cell viability) [5]	anti-cancer/growth enhancement (WST-8 cell viability) [6]	anti-cancer/growth enhancement (WST-8 cell viability) [7, 13]	anti-cancer/growth enhancement (WST-8 cell viability) ([7]; in combination with dabrafenib, 72 hours)	anti-cancer/growth enhancement (WST-8 cell viability) [8, 13]	anti-cancer/growth enhancement (WST-8 cell viability) [8, 14]	cell apoptosis (changes in nuclear staining of Bcl2, ICC) [9]	cell apoptosis (nuclear staining of Bcl2, nuclear vacuolization) [10]	response enhancement (in vitro sensitivity to various MTAs with and without EM, WST8) [11]	anti-cancer/growth enhancement (WST-8 cell viability) [12, 13]	anti-cancer/growth enhancement (WST-8 cell viability) ([12]; in combination with GSK-795, 72 hours)	anti-cancer/growth enhancement (WST-8 cell viability) ([12]; in combination with everolimus, 72 hours)	anti-cancer/growth enhancement (WST-8 cell viability) ([12]; in combination with metformin, 72 hours)	anti-cancer/growth enhancement (WST-8 cell viability) ([12]; in combination with osimertinib, 72 hours)	anti-cancer/growth enhancement (WST-8 cell viability) [12, 14]
tumor necrosis factor-alpha [EM2]	moderate-to-strong anti-cancer/growth enhancement	moderate-to-strong anti-cancer/growth enhancement	moderate-to-strong anti-cancer/growth enhancement	moderate-to-strong anti-cancer/growth enhancement	moderate-to-strong anti-cancer/growth enhancement	moderate-to-strong anti-cancer/growth enhancement	moderate-to-strong anti-cancer/growth enhancement	moderate-to-strong anti-cancer/growth enhancement	moderate-to-strong anti-cancer/growth enhancement	moderate-to-strong anti-cancer/growth enhancement	promoted cell apoptosis	promoted cell apoptosis	no, minimal and strong response enhancement	–	–	–	–	–	–
B1	–	–	–	–	–	–	–	–	–	–	–	–	–	anti-cancer/growth enhancement	anti-cancer/growth enhancement	anti-cancer/growth enhancement	anti-cancer/growth enhancement	anti-cancer/growth enhancement	anti-cancer/growth enhancement
